One experiment relates to mites (Chorioptes bovis). As to the kind of experiment: Comparative trial vs Amitraz: mite count in skin scraping samples. It counts as in vivo. The settings on record: week 4; 10 animals per group. From the text:
(§1) Twenty Belgian Blue cattle (6 heifers and 14 cows) were used in this trial. Cattle with mild or severe visual signs of scabies infection were selected, tied, shaved, scored for scabies lesions (clinical index) and skin scraping samples were taken for counts of mites and lice. Next, the animals were divided into 2 groups, a control group and a treatment group, based on the results of the clinical index and mite—lice counts at the end of the pre-treatment phase. At the start of the treatment period, animals were housed in a tie-stable, shaved and tied to prevent physical contact with other animals.
(§2) Control group: The animals in the positive control group were treated according to the standard ILVO (Flecmish Institute for Agriculture and Fishery) scabies prevention protocol which consisted of treatment with Amitraz (Tactic) and removal of the crusts, followed by a second treatment with interval of 10 days between both treatments. After the second treatment crusts were not removed.
Treatment group: The animals in the treatment group were not treated with Amitraz (Tactic), but were fed the indicative daily dose of 200 g of dried chicory root composition per animal per day. […]
Using microscopy, the numbers of mites and lice in each sample were counted and the types of mites and lice were identified by an expert at the Laboratory of Parasitology, Ghent University, Belgium. […]

Experiment [1] concerns scabies (dominantly caused by the mite Chorioptes bovis). As to the kind of experiment: Comparative trial vs Amitraz: clinical index of scabies lesions. The settings on record: for clinical index, active lesions (4): week not given. On the set-up: key to clinical index, active lesions (4): % area with type 4 lesions = squares type 4/350*100. The experiment is classed as in vivo.
Description: The whole trial lasted for 15 weeks and was subdivided in […]: a pre-treatment period of 9 weeks, a treatment period of 3 weeks, and a 3 week post-treatment period.
The trial started with pre-treatment period of 9 weeks during which the animals were housed in a straw-bedded free stall and received no preventive treatment against scabies and lice. At the end of the pre-treatment period, the degree of scabies lesions (clinical index) and counts of mites and lice in skin-scraping samples were evaluated.
as §1, §2
Treatment group: The animals in the treatment group were not treated with Amitraz (Tactic), but were fed the indicative daily dose of 200 g of dried chicory root composition per animal per day. Said amount corresponds to roughly 1 to 2% of dried chicory root on the total feed. Dried chicory root composition was provided mixed through the daily dose of soybean meal and concentrate. The nutritional treatment with dried chicory root composition lasted for 3 consecutive weeks during which the animals receive their daily dose of dried chicory root composition. […]
In the last week of the pre-treatment period (week 0) and every following week till the end of the post-treatment period, the clinical index was determined as a measure for scabies lesions. Per animal, the number, size and type of scabies lesions was determined using a scoring form.
A distinction was made between dried, healing lesions (type 3) and wet, active lesions (type 4). The clinical index was calculated based on the total number of lesions using the formula: Area with lesions=total squares/350*100.
In addition, an alternative clinical index was calculated based on the number of active lesions: Area with lesions type 4=squares type 4/350*100. […]

Experimental findings from patent US11785950B2, “Use of dried chicory root to protect poultry and livestock against ectoparasites or as insect repellant” (Cosucra Groupe Warcoing S.A., priority 2017, dated 2023) are described below.

Turning to `Cc1ccc(/N=C/N(C)/C=N/c2ccc(C)cc2C)c(C)c1` [Tactic, Amitraz], in the experiment with mites (Chorioptes bovis), the “WBT samples positive for Chorioptes bovis” value was found to be 3 samples. In addition, the “hock samples positive for Chorioptes bovis” value with mites (Chorioptes bovis) is on record as “one”. Moreover, the “clinical index, active lesions (4)” value in experiment [1] (3rd week pair of columns), in experiment [1] (4th week pair of columns) and in experiment [1] (5th week pair of columns) was 0.0 in each case. Moreover, the “clinical index of Tactic group higher than that of dried chicory root group, 95% confidence maximum” value in experiment [1] (equivalence test) is recorded as no more than 15%.
